Measurements published in patent US5965699A (priority 1996, dated 1999).
Values joined by “and” are separate entries in the source; they are usually repeats but may differ in a detail not shown here. Identical values can stand only once. Like-named read-outs stand apart in the source and are kept apart here. Where a SMILES comes first, the peptide text is derived from it. [ ]: non-standard residue; d: D form. Nle = CCCC[C@H](N)C(=O)O; Abu = CC[C@H](N)C(=O)O

Target: botox A (Clostridium botulinum, UniProt P0DPI1)
Assay type: biochemical
Parameters: Rate (initial rate of peptide hydrolysis) / Rate (initial rate of hydrolysis) In AcBSA: unit not given here

Sequence of botox A (P0DPI1 2-448 limits assumed): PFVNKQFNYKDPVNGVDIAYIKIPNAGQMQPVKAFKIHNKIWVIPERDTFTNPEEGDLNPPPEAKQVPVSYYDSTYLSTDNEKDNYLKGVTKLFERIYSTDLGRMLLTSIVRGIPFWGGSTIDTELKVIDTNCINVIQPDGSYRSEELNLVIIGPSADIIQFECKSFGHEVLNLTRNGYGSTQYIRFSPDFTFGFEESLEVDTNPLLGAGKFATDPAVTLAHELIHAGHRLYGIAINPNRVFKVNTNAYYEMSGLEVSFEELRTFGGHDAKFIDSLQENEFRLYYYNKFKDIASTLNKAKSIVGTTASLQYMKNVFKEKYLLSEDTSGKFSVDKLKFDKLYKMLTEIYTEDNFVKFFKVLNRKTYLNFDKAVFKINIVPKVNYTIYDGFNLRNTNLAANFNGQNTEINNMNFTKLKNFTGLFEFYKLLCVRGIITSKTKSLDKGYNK

| Molecule | Kcat In AcBSA | Kcat In BSA | Rate (initial rate of hydrolysis) In AcBSA | Rate (initial rate of hydrolysis) In BSA | Rate (initial rate of peptide hydrolysis) | Relative Rate | Km (read-out: Km In AcBSA) | hydrolysis by botox A, described in words | kcat (in 1/s) | Km (read-out: Km) | other results |
| --- | --- | --- | --- | --- | --- | --- | --- | --- | --- | --- | --- |
| CC[C@H](NC(=O)[C@H](CCCNC(=N)N)NC(=O)[C@H](CC(N)=O)NC(=O)[C@H](CO)NC(C)=O)C(=O)N[C@@H](CCCNC(=N)N)C(=O)N[C@H](C(=O)N[C@@H](CC(=O)O)C(=O)N[C@@H](CCC(=O)O)C(=O)N[C@@H](C)C(=O)N[C@@H](CC(N)=O)C(=O)N[C@@H](CCC(N)=O)C(=O)N[C@@H](CCCNC(=N)N)C(=O)N[C@@H](C)C(=O)N[C@H](C(=O)N[C@@H](CCCNC(=N)N)C(=O)N[C@@H](CCSC)C(=O)N[C@@H](CC(C)C)C(N)=O)[C@@H](C)O)[C@@H](C)CC [peptide 3, S N R B R I D E A N Q R A T R M L] (Ac-SNR[Abu]RIDEANQRATRML-NH2) | 58 s⁻¹ | 75 s⁻¹ | 18 | 16 | 15.8 ± 0.8 | 2.1 | 320 µM |  |  |  | Km (read-out: Km In BSA): 910 µM |
| CC[C@H](NC(=O)[C@H](C)NC(=O)[C@H](CCCNC(=N)N)NC(=O)[C@H](CCC(N)=O)NC(=O)[C@H](CC(N)=O)NC(=O)[C@H](C)NC(=O)[C@H](CCC(=O)O)NC(=O)[C@H](CC(=O)O)NC(=O)[C@@H](NC(=O)[C@H](CCCNC(=N)N)NC(=O)[C@@H](NC(=O)[C@H](CCCCN)NC(=O)[C@H](CC(N)=O)NC(=O)[C@H](CO)NC(C)=O)[C@@H](C)O)[C@@H](C)CC)C(=O)N[C@@H](CCCCN)C(=O)N[C@@H](CCSC)C(=O)N[C@@H](CC(C)C)C(N)=O [T14B, S N K T R I D E A N Q R A B K M L] (Ac-SNKTRIDEANQRA[Abu]KML-NH2) |  |  |  |  |  |  |  | good substrate | 35 ± 2 | 1300 ± 100 µM | Relative Rate (initial hydrolysis rates relative to peptide [1-17]): 1.20 |
| Ac-SNKTRIDEANQRATKAL-NH2 [M16A, S N K T R I D E A N Q R A T K A L] |  |  |  |  |  |  |  |  | 25 ± 1 | 1900 ± 100 µM | Relative Rate (initial hydrolysis rates relative to peptide [1-17]): .38; decrease in kcat compared with peptide [1-17]: ~50% |
| Ac-SNKTRIDEANQAATKML-NH2 [R12A, S N K T R I D E A N Q A A T K M L] |  |  |  |  |  |  |  |  |  |  | Relative Rate (initial hydrolysis rates relative to peptide [1-17]): < 0.02 |
| Ac-SNRTRIDQANQRATRML-NH2 [compound 4, S N R T R I D Q A N Q R A T R M L] | 68 s⁻¹ | 64 s⁻¹ | 19 | 13 | 12.6 ± 0.5 | 1.7 | 470 µM |  |  |  | Km (read-out: Km In BSA): 760 µM |
| CC[C@H](NC(=O)[C@H](CC(=O)O)NC(=O)[C@@H](NC(=O)[C@H](CCCNC(=N)N)NC(=O)[C@H](CC)NC(=O)[C@H](CCCNC(=N)N)NC(=O)[C@H](CC(N)=O)NC(=O)[C@H](CO)NC(C)=O)[C@@H](C)CC)C(=O)N[C@@H](C)C(=O)N[C@@H](CC(N)=O)C(=O)N[C@@H](CCC(N)=O)C(=O)N[C@@H](CCCNC(=N)N)C(=O)N[C@@H](C)C(=O)N[C@H](C(=O)N[C@@H](CCCNC(=N)N)C(=O)N[C@@H](CCSC)C(=O)N[C@@H](CC(C)C)C(N)=O)[C@@H](C)O [peptide 6, S N R B R I D B A N Q R A T R M L] (Ac-SNR[Abu]RID[Abu]ANQRATRML-NH2) | 86 s⁻¹ | 89 s⁻¹ | 25 | 24 | 25.3 ± 0.7 | 3.3 | 400 µM | more than three times faster |  |  | Km (read-out: Km In BSA): 520 µM |
| CCCC[C@H](NC(=O)[C@H](CCCCN)NC(=O)[C@@H](NC(=O)[C@H](C)NC(=O)[C@H](CCCNC(=N)N)NC(=O)[C@H](CCC(N)=O)NC(=O)[C@H](CC(N)=O)NC(=O)[C@H](C)NC(=O)[C@H](CCC(=O)O)NC(=O)[C@H](CC(=O)O)NC(=O)[C@@H](NC(=O)[C@H](CCCNC(=N)N)NC(=O)[C@@H](NC(=O)[C@H](CCCCN)NC(=O)[C@H](CC(N)=O)NC(=O)[C@H](CO)NC(C)=O)[C@@H](C)O)[C@@H](C)CC)[C@@H](C)O)C(=O)N[C@@H](CC(C)C)C(N)=O [M16X, S N K T R I D E A N Q R A T K X L] (Ac-SNKTRIDEANQRATK[Nle]L-NH2) |  |  |  |  |  |  |  | hydrolyzed somewhat faster than the native-sequence peptide | 30 ± 1 | 580 ± 20 µM |  |
| CC[C@H](NC(=O)[C@H](CCC(=O)O)NC(=O)[C@H](CC(=O)O)NC(=O)[C@@H](NC(=O)[C@H](CCCNC(=N)N)NC(=O)[C@@H](NC(=O)[C@H](CCCCN)NC(=O)[C@H](CC(N)=O)NC(=O)[C@H](CO)NC(C)=O)[C@@H](C)O)[C@@H](C)CC)C(=O)N[C@@H](CC(N)=O)C(=O)N[C@@H](CCC(N)=O)C(=O)N[C@@H](CCCNC(=N)N)C(=O)N[C@@H](C)C(=O)N[C@H](C(=O)N[C@@H](CCCCN)C(=O)N[C@@H](CCSC)C(=O)N[C@@H](CC(C)C)C(N)=O)[C@@H](C)O [A9B, S N K T R I D E B N Q R A T K M L] (Ac-SNKTRIDE[Abu]NQRATKML-NH2) |  |  |  |  |  |  |  | still a good substrate | 11 ± 1 | 1100 ± 100 µM | decrease in kcat compared with peptide [1-17]: about 75% |
| Ac-SNKTRIDEANQRATKM-NH2 [[1-16], S N K T R I D E A N Q R A T K M] |  |  |  |  |  |  |  | excellent substrate | 6 ± 4 | 1600 ± 100 µM | Relative Rate (initial hydrolysis rates relative to peptide [1-17]): .17 |
| Ac-SNRTRIDEANQRATRML-NH2 [peptide 2, S N R T R I D E A N Q R A T R M L] | 61 s⁻¹ | 68 s⁻¹ | 16 | 11 | 11.3 ± 0.5 | 1.5 | 530 µM | slightly faster than peptide 1 |  |  | Km (read-out: Km In BSA): 1400 µM |
| CC[C@H](NC(=O)[C@H](CCCNC(=N)N)NC(=O)[C@H](CC(N)=O)NC(=O)[C@H](CO)NC(C)=O)C(=O)N[C@@H](CCCNC(=N)N)C(=O)N[C@H](C(=O)N[C@@H](CC(=O)O)C(=O)N[C@@H](CCC(N)=O)C(=O)N[C@@H](C)C(=O)N[C@@H](CC(N)=O)C(=O)N[C@@H](CCC(N)=O)C(=O)N[C@@H](CCCNC(=N)N)C(=O)N[C@@H](C)C(=O)N[C@H](C(=O)N[C@@H](CCCNC(=N)N)C(=O)N[C@@H](CCSC)C(=O)N[C@@H](CC(C)C)C(N)=O)[C@@H](C)O)[C@@H](C)CC [peptide 7, S N R B R I D Q A N Q R A T R M L] (Ac-SNR[Abu]RIDQANQRATRML-NH2) | 73 s⁻¹ |  | 22 | 14 | 14.1 ± 0.7 | 1.9 | 310 µM |  |  |  |  |
| Ac-SNKTRIDEANNRATKML-NH2 [Q11N, S N K T R I D E A N N R A T K M L] |  |  |  |  |  |  |  | slowed but did not eliminate hydrolysis | 19 ± 3 | 750 ± 80 µM |  |
| Ac-TRIDEANQRATKM-NH2 [13-residue peptide] |  |  |  |  |  |  |  |  |  |  | reduction in rate of botox A-catalyzed hydrolysis: 43% |
| Ac-SNKTRIDEAQQRATKML-NH2 [N10Q, S N K T R I D E A Q Q R A T K M L] |  |  |  |  |  |  |  | No hydrolysis |  |  |  |
| Ac-SNKTRIDEANQRASKML-NH2 [T14S, S N K T R I D E A N Q R A S K M L] |  |  |  |  |  |  |  | significantly lower hydrolysis rate |  | ~1200 µM | Km: 1200 µM; Relative Rate (initial hydrolysis rates relative to peptide [1-17]): 0.26; kcat: ~9.0 and 9.0 sec^-1 |
| CC[C@H](NC(=O)[C@H](CC(N)=O)NC(=O)[C@H](C)NC(=O)[C@H](CCC(=O)O)NC(=O)[C@H](CC(=O)O)NC(=O)[C@@H](NC(=O)[C@H](CCCNC(=N)N)NC(=O)[C@@H](NC(=O)[C@H](CCCCN)NC(=O)[C@H](CC(N)=O)NC(=O)[C@H](CO)NC(C)=O)[C@@H](C)O)[C@@H](C)CC)C(=O)N[C@@H](CCCNC(=N)N)C(=O)N[C@@H](C)C(=O)N[C@H](C(=O)N[C@@H](CCCCN)C(=O)N[C@@H](CCSC)C(=O)N[C@@H](CC(C)C)C(N)=O)[C@@H](C)O [Q11B, S N K T R I D E A N B R A T K M L] (Ac-SNKTRIDEAN[Abu]RATKML-NH2) |  |  |  |  |  |  |  | slowed but did not eliminate hydrolysis | 7.7 ± 0.2 | 830 ± 50 µM |  |
| CC[C@H](NC(=O)[C@H](CC(=O)O)NC(=O)[C@@H](NC(=O)[C@H](CCCNC(=N)N)NC(=O)[C@@H](NC(=O)[C@H](CCCNC(=N)N)NC(=O)[C@H](CC(N)=O)NC(=O)[C@H](CO)NC(C)=O)[C@@H](C)O)[C@@H](C)CC)C(=O)N[C@@H](C)C(=O)N[C@@H](CC(N)=O)C(=O)N[C@@H](CCC(N)=O)C(=O)N[C@@H](CCCNC(=N)N)C(=O)N[C@@H](C)C(=O)N[C@H](C(=O)N[C@@H](CCCNC(=N)N)C(=O)N[C@@H](CCSC)C(=O)N[C@@H](CC(C)C)C(N)=O)[C@@H](C)O [peptide 5, S N R T R I D B A N Q R A T R M L] (Ac-SNRTRID[Abu]ANQRATRML-NH2) | 70 s⁻¹ | 69 s⁻¹ | 21 | 13 | 12.9 ± 0.3 | 1.7 | 330 µM |  |  |  | specific activity of type A toxin against the peptide: 21 µmol/min/mg; Km (read-out: Km In BSA): 740 µM |
| Ac-SNKTRIDEANQRATKML-NH2 [[1-17], S N K T R I D E A N Q R A T K M L] | 41 s⁻¹ | 47 s⁻¹ | 10 | 8 | 7.6 ± 0.3 | 1.0 | 590 µM |  | 47 ± 2 | 1700 ± 100 µM |  |
